US9579319B2 (Redx Pharma PLC, priority 2013, dated 2017)

test system: Hedgehog signalling pathway; experiment: Gli-reporter NIH3T3 luciferase assay (Hedgehog pathway inhibition); format: cell-based; details: NIH3T3; Gli-reporter NIH-3T3 cells, recombinant mouse sonic hedgehog, 24 hours, luminescence; read-out: Category (Hedgehog pathway inhibition activity, IC50)
Method in brief: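 Mouse NIH3T3 cells with Gli-responsive luciferase reporter, pre-treated 1 h with compound (top final concentration 1 μM, 0.1% DMSO) in 0.5% calf serum medium. Then stimulated with recombinant mouse sonic hedgehog for 24 h at 37° C. Luminescence read-out (OneGLO), triplicates; IC50 reported.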

`Cn1nccc1-c1nnc(N2CCC(NCc3ccc(Cl)nc3C(F)(F)F)CC2)c2ccccc12` [Example 44, N-[[6-chloro-2-(trifluoromethyl)-3-pyridyl]methyl]-1-[4-(2-methylpyrazol-3-yl)phthalazin-1-yl]piperidin-4-amine] and `Cn1nccc1-c1nnc(N2CCC(NCc3ccc(F)cc3C(F)(F)F)CC2)c2ccccc12` [Example 79, N-[[4-fluoro-2-(trifluoromethyl)phenyl]methyl]-1-[4-(2-methylpyrazol-3-yl)phthalazin-1-yl]piperidin-4-amine] cannot be ordered by IC50: under 10 nM for the first, under 10 nM for the second.

`Cn1nccc1-c1nnc(N2CCC(NCc3ccc(F)cc3Cl)CC2)c2ccccc12` [Example 19, N-[(2-chloro-4-fluoro-phenyl)methyl]-1-[4-(2-methylpyrazol-3-yl)phthalazin-1-yl]piperidin-4-amine] and `Cn1nccc1-c1nnc(N2CCC(NCc3ccc(Cl)cc3)CC2)c2ccccc12` [Example 35, N-[(4-chlorophenyl)methyl]-1-[4-(2-methylpyrazol-3-yl)phthalazin-1-yl]piperidin-4-amine] fall in the same range of IC50: 10 to 200 nM for the first, 10 to 200 nM for the second.

`Cn1nccc1-c1nnc(N2CCC(NC(=O)Nc3ccc(C(F)(F)F)cc3)CC2)c2ccccc12` [Example 14, 1-[1-[4-(2-methylpyrazol-3-yl)phthalazin-1-yl]-4-piperidyl]-3-[4-(trifluoromethyl)phenyl]urea] and `Cn1nccc1-c1nnc(N2CCC(Nc3ccc(F)cc3C(F)(F)F)CC2)c2ccccc12` [Example 53, N-[4-fluoro-2-(trifluoromethyl)phenyl]-1-[4-(2-methylpyrazol-3-yl)phthalazin-1-yl]piperidin-4-amine] cannot be ordered by IC50: under 10 nM for the first, under 10 nM for the second.

`COc1ccccc1CN(C)C1CCN(c2nnc(-c3ccnn3C)c3ccccc23)CC1` [Example 61, N-[(2-methoxyphenyl)methyl]-N-methyl-1-[4-(2-methylpyrazol-3-yl)phthalazin-1-yl]piperidin-4-amine] was tested, and the IC50 was 200 to 2000 nM.

same assay, conditions: NIH3T3; Gli-reporter NIH-3T3 cells, recombinant mouse sonic hedgehog, 24 hours, luminescence; read-out: Gli Luc nM (IC50)

Going from `Cn1nccc1-c1nnc(N2CCC(NCc3ccc(F)cc3C(F)(F)F)CC2)c2ccccc12` [Example 79, N-[[4-fluoro-2-(trifluoromethyl)phenyl]methyl]-1-[4-(2-methylpyrazol-3-yl)phthalazin-1-yl]piperidin-4-amine] to `Cn1nccc1-c1nnc(N2CCC(NC(=O)Nc3ccc(C(F)(F)F)cc3)CC2)c2ccccc12` [Example 14, 1-[1-[4-(2-methylpyrazol-3-yl)phthalazin-1-yl]-4-piperidyl]-3-[4-(trifluoromethyl)phenyl]urea], the IC50 falls from 7.85 nM to 0.71 nM (11-fold).

same assay, conditions: NIH3T3; Gli-reporter NIH-3T3 cells, recombinant mouse sonic hedgehog, 24 hours, luminescence; read-out: Gli luc IC50

First: Cc1cc(-c2nnc(N3CCC(NS(=O)(=O)c4ccc(F)cc4C(F)(F)F)CC3)c(C)c2C)ccn1 [Example 118, N-[1-[4,5-dimethyl-6-(2-methyl-4-pyridyl)pyridazin-3-yl]-4-piperidyl]-4-fluoro-2-(trifluoromethyl)benzenesulfonamide]
Second: Cn1nccc1-c1nnc(N2CCC(NS(=O)(=O)c3ccc(F)cc3C(F)(F)F)CC2)c2cnccc12 [Example 106, 4-fluoro-N-[1-[1-(2-methylpyrazol-3-yl)pyrido[3,4-d]pyridazin-4-yl]-4-piperidyl]-2-(trifluoromethyl)benzenesulfonamide]
The IC50 of the first is higher: over 200 nM for the first, 10 to 200 nM for the second. The second is the more potent here.

Compared with `CN(Cc1ccc(F)cc1C(F)(F)F)C1CCN(c2nnc(-c3cnccn3)c3ccccc23)CC1` [Example 153, N-[[4-fluoro-2-(trifluoromethyl)phenyl]methyl]-N-methyl-1-(4-pyrazin-2-ylphthalazin-1-yl)piperidin-4-amine], `CN(Cc1cnccc1C(F)(F)F)C1CCN(c2nnc(-c3ccnn3C)c3ccccc23)CC1` [Example 154, N-methyl-1-[4-(2-methylpyrazol-3-yl)phthalazin-1-yl]-N-[[4-(trifluoromethyl)-3-pyridyl]methyl]piperidin-4-amine] is lower in IC50: over 200 nM for the first, under 10 nM for the second. The second is the more potent here.

`Cn1nccc1-c1nnc(N2CCC(NC(=O)NC3(C(F)(F)F)CC3)CC2)c2ccccc12` [Example 109, 1-[1-[4-(2-methylpyrazol-3-yl)phthalazin-1-yl]-4-piperidyl]-3-[1-(trifluoromethyl)cyclopropyl]urea] and `Cc1c(-c2ccnn2C)nnc(N2CCC(NC(=O)NC3(C(F)(F)F)CC3)CC2)c1C` [Example 108, 1-[1-[4,5-dimethyl-6-(2-methylpyrazol-3-yl)pyridazin-3-yl]-4-piperidyl]-3-[1-(trifluoromethyl)cyclopropyl]urea] fall in the same range of IC50: 10 to 200 nM for the first, 10 to 200 nM for the second.

First: CN(C(=O)Nc1ccc(F)cc1F)C1CCN(c2nnc(-c3ccnn3C)c3ncccc23)CC1 [Example 101, 3-(2,4-difluorophenyl)-1-methyl-1-[1-[8-(2-methylpyrazol-3-yl)pyrido[2,3-d]pyridazin-5-yl]-4-piperidyl]urea]
Second: CN(C(=O)Nc1ccc(F)cc1F)C1CCN(c2nnc(-c3ccnn3C)c3ccncc23)CC1 [Example 111, 3-(2,4-difluorophenyl)-1-methyl-1-[1-[1-(2-methylpyrazol-3-yl)pyrido[3,4-d]pyridazin-4-yl]-4-piperidyl]urea]
The IC50 of the first is higher: over 200 nM for the first, 10 to 200 nM for the second.

`Cn1nccc1-c1nnc(N2CCC(NC(=O)Nc3ccc(F)cc3F)CC2)c2c1CCC2` [Example 138, 1-(2,4-difluorophenyl)-3-[1-[1-(2-methylpyrazol-3-yl)-6,7-dihydro-5H-cyclopenta[d]pyridazin-4-yl]-4-piperidyl]urea] and `Cc1c(-c2ccnn2C)nnc(N2CCC(NC(=O)Nc3ccc(F)cc3C(F)(F)F)CC2)c1C` [Example 100, 1-[1-[4,5-dimethyl-6-(2-methylpyrazol-3-yl)pyridazin-3-yl]-4-piperidyl]-3-[4-fluoro-2-(trifluoromethyl)phenyl]urea] fall in the same range of IC50: 10 to 200 nM for the first, 10 to 200 nM for the second.

`Cn1nccc1-c1nnc(N2CCC(NCc3ncccc3C(F)(F)F)CC2)c2ccccc12` [Example 150, 1-[4-(2-methylpyrazol-3-yl)phthalazin-1-yl]-N-[[3-(trifluoromethyl)-2-pyridyl]methyl]piperidin-4-amine] and `CN(Cc1ncccc1C(F)(F)F)C1CCN(c2nnc(-c3ccnn3C)c3ccccc23)CC1` [Example 147, N-methyl-1-[4-(2-methylpyrazol-3-yl)phthalazin-1-yl]-N-[[3-(trifluoromethyl)-2-pyridyl]methyl]piperidin-4-amine] fall in the same range of IC50: 10 to 200 nM for the first, 10 to 200 nM for the second.

`CN(Cc1ccncn1)C1CCN(c2nnc(-c3ccnn3C)c3ccccc23)CC1` [Example 86, N-methyl-1-[4-(2-methylpyrazol-3-yl)phthalazin-1-yl]-N-(pyrimidin-4-ylmethyl)piperidin-4-amine] and `COC(=O)c1ccc(CNC2CCN(c3nnc(-c4ccnn4C)c4ccccc34)CC2)nc1` [Example 166, methyl 6-[[[1-[4-(2-methylpyrazol-3-yl)phthalazin-1-yl]-4-piperidyl]amino]methyl]pyridine-3-carboxylate] cannot be ordered by IC50: over 200 nM for the first, over 200 nM for the second.

`Cn1nccc1-c1nnc(N2CCC(NC(=O)Nc3ccc(F)cc3C(F)(F)F)CC2)c2cnccc12` [Example 105, 1-[4-fluoro-2-(trifluoromethyl)phenyl]-3-[1-[1-(2-methylpyrazol-3-yl)pyrido[3,4-d]pyridazin-4-yl]-4-piperidyl]urea] and `CN(C(=O)Nc1ccc(F)cc1F)C1CCN(c2nnc(-c3ccnn3C)c3ccccc23)CC1` [Example 169, 3-(2,4-difluorophenyl)-1-methyl-1-[1-[4-(2-methylpyrazol-3-yl)phthalazin-1-yl]-4-piperidyl]urea] cannot be ordered by IC50: under 10 nM for the first, under 10 nM for the second.

First: Cc1nc(C(F)(F)F)c(CN(C)C2CCN(c3nnc(-c4ccnn4C)c(C)c3C)CC2)s1 [Example 95, 1-[4,5-dimethyl-6-(2-methylpyrazol-3-yl)pyridazin-3-yl]-N-methyl-N-[[2-methyl-4-(trifluoromethyl)thiazol-5-yl]methyl]piperidin-4-amine]
Second: Cn1nccc1-c1nnc(N2CCC(NCc3cccc(C#N)c3)CC2)c2c1CCC2 [Example 149, 3-[[[1-[1-(2-methylpyrazol-3-yl)-6,7-dihydro-5H-cyclopenta[d]pyridazin-4-yl]-4-piperidyl]amino]methyl]benzonitrile]
The IC50 of the first is lower: 10 to 200 nM for the first, over 200 nM for the second. The first is the more potent here.
